# Activity calls are given as the source filed them. The rule behind the calls is not given here.
# Columns and labels:
# [1] = molecular target: T1, Bombesin receptor subtype-3 (Homo sapiens, UniProt P32247); experiment: Agonist activity at human BB3 stably overexpressed in human NCI-H1299 cells assessed as increase in IP-1 accumulation incubated for 60 mins by HTRF assay; format: functional, cell-based
# T1 sequence (P32247 whole entry): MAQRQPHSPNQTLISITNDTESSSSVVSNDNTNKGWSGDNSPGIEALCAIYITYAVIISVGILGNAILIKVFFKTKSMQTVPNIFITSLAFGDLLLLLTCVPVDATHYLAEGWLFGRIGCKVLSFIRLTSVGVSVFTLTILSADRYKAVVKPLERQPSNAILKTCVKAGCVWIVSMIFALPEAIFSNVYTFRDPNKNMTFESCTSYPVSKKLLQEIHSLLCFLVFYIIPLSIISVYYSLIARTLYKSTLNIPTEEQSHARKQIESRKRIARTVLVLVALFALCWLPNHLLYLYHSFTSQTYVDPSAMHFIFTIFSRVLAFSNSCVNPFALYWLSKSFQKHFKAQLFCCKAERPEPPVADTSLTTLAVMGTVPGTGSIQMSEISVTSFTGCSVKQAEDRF
# [2] = molecular target: T1, Bombesin receptor subtype-3; experiment: Agonist activity at human BB3 stably overexpressed in human NCI-H1299 cells assessed as increase in intracellular calcium response and measured for 3 mins by FLIPR calcium 6 assay; format: functional, cell-based
# [3] = molecular target: T2, Bombesin receptor subtype-3 (Mus musculus, UniProt O54798); experiment: Agonist activity at mouse BB3 stably overexpressed in human HEK cells assessed as increase in IP-1 accumulation incubated for 60 mins by HTRF assay; format: functional, cell-based
# T2 sequence (O54798 whole entry): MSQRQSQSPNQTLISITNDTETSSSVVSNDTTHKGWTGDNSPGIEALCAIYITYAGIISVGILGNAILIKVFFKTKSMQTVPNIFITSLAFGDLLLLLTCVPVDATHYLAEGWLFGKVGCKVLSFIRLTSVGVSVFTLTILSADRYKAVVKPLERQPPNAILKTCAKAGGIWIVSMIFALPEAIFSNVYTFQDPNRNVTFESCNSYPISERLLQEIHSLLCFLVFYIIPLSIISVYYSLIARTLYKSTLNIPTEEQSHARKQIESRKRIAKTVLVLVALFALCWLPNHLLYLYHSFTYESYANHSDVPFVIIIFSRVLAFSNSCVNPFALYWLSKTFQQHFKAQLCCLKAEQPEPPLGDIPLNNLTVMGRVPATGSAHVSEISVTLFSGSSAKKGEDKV
# [4] = molecular target: T2, Bombesin receptor subtype-3; experiment: Agonist activity at mouse BB3 stably overexpressed in human HEK cells assessed as increase in intracellular calcium response and measured for 3 mins by FLIPR calcium 6 assay; format: functional, cell-based
# Neuromedin-B receptor [5] = molecular target: T3, Neuromedin-B receptor (Homo sapiens, UniProt P28336); experiment: Agonist activity at human BB1 in human HEK293T cells assessed as increase in intracellular calcium response at 10 uM and measured for 3 mins by FLIPR calcium 6 assay; format: functional, cell-based
# Target sequence in this assay (P28336 whole entry, looked up): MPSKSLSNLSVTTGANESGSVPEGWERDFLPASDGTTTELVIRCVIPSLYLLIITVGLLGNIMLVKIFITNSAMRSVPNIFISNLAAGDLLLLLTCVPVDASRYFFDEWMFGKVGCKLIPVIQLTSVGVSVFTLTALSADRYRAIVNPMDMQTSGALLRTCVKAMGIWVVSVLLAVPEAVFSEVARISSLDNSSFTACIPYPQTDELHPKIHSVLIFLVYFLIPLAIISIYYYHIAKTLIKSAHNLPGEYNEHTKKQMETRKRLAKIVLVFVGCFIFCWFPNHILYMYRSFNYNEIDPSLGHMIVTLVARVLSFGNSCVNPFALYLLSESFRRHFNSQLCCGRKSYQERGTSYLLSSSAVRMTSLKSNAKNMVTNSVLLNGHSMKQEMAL
# HEK293T = experiment: Agonist activity at human BB3 in human HEK293T cells assessed as increase in intracellular calcium response at 10 uM and measured for 3 mins by FLIPR calcium 6 assay; format: cell-based
# [6] = molecular target: T2, Bombesin receptor subtype-3; experiment: Agonist activity at endogenous mouse BB3 in mouse B16 cells assessed as increase in IP-1 accumulation incubated for 60 mins by HTRF assay; format: functional, cell-based
# Mus musculus [7] = experiment: Antidiabetic activity in five hrs fasted wild type C57BL/6 mouse assessed as reduction in blood glucose level at 3 to 30 mg/kg,po pretreated with compound for 30 mins and followed by […] and measured upto 120 mins by OGTT; format: functional, organism-based; conditions: dose upper 30.0 mg/kg, time 150.0 min
# Mus musculus [8] = experiment: Antidiabetic activity in five hrs fasted BB3 knockout C57BL/6 mouse assessed as reduction in blood glucose level at 30 mg/kg,po pretreated with compound for 30 mins and followed by […] and measured upto 120 mins by OGTT; format: functional, organism-based; conditions: time 150.0 min
# [9] = Dissociation constant, pKa of the compound; format: physicochemical
# [10] = Drug concentration in […] mouse cerebrospinal fluid at 50 mg/kg,po and measured upto 480 mins by LC-MS/MS analysis; format: ADME, organism-based; conditions: read-out: Ct
# Mus musculus [11] = experiment: Antidiabetic activity in fourteen hour fasted type 2 diabetic db/db mouse assessed as reduction of blood glucose excursion at 10 mg/kg,po for 2 weeks followed by […] and measured upto 120 mins by OGTT; format: functional, organism-based
# Mus musculus [12] = experiment: Antidiabetic activity in fourteen hour fasted type 2 diabetic db/db mouse assessed as decrease in fasting blood glucose level at 10 mg/kg,po for 4 weeks by Glucose analyzer; format: functional, organism-based
# Mus musculus [13] = experiment: Antidiabetic activity in fourteen hour fasted type 2 diabetic db/db mouse assessed as decrease in glycosylated serum protein at 10 mg/kg,po for 4 weeks; format: functional, organism-based
# Mus musculus [14] = experiment: Antidiabetic activity in fourteen hour fasted type 2 diabetic db/db mouse assessed as decrease in HOMA-IR level at 10 mg/kg,po for 4 weeks; format: functional, organism-based
# Mus musculus [15] = experiment: Antidiabetic activity in fourteen hour fasted type 2 diabetic db/db mouse assessed as decrease in ALT level at 10 mg/kg,po for 4 weeks by BS-360S analyzer; format: functional, organism-based
# Mus musculus [16] = experiment: Antidiabetic activity in fourteen hour fasted type 2 diabetic db/db mouse assessed as decrease in gamma-GT level at 10 mg/kg,po for 4 weeks by BS-360S analyzer; format: functional, organism-based
# [17] = molecular target: T1, Bombesin receptor subtype-3; experiment: Agonist activity at human BB3 transiently expressed in human HEK293T cells assessed as increase in IP-1 accumulation incubated for 60 mins by HTRF assay
# [18] = molecular target: T4, Bombesin receptor subtype-3 (Rattus norvegicus, UniProt Q8K418); experiment: Agonist activity at rat BB3 transiently expressed in human HEK293T cells assessed as increase in IP-1 accumulation incubated for 60 mins by HTRF assay; format: functional, cell-based
# T4 sequence (Q8K418 whole entry): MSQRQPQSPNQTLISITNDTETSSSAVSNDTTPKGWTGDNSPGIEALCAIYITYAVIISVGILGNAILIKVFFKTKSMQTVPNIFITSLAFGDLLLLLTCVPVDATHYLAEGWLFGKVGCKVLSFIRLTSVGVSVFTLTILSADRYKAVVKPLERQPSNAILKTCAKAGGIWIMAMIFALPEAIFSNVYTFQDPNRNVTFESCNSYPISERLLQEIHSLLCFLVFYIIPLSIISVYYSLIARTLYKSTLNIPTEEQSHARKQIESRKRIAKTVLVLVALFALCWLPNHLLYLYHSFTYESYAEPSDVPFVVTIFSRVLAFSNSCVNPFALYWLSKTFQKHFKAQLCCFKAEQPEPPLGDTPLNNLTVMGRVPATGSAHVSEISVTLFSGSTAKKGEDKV
# Mus musculus [19] = experiment: Antidiabetic activity in fourteen hour fasted type 2 diabetic db/db mouse assessed as increase in PPRE expression in white adipose tissue at 10 mg/kg, po for 4 weeks by Western blot analysis; format: functional, organism-based
# Neuromedin-B receptor [20] = molecular target: T3, Neuromedin-B receptor; experiment: Agonist activity at human BB1 in human HEK293T cells assessed as increase in intracellular calcium response and measured for 3 mins by FLIPR calcium 6 assay; format: functional, cell-based
# Target sequence in this assay (P28336 whole entry): as the sequence (P28336 whole entry, looked up) above
# [21] = Agonist activity at human BB3 in human HEK293T cells assessed as increase in intracellular calcium response and measured for 3 mins by FLIPR calcium 6 assay; format: cell-based; conditions: HEK-293T, 0.05 h
smiles,measurement,setting,value
C=CC(C)(C)C(OC(=O)c1ccccc1)c1cc(OC)c2c(c1OC)/C(=N/O)C=C/C2=N\O (centres undefined),EC50,[1],4.79 nM
C=CC(C)(C)C(OC(=O)c1cccnc1Br)c1cc(OC)c2c(c1OC)/C(=N/O)C=C/C2=N\O (centres undefined),EC50,[1],101 nM
COc1cc(C(O)CC=C(C)C)c(OC)c2c1/C(=N/O)C=C/C2=N\O (centres undefined),EC50,[1],3400 nM
same,EC50,[2],2380 nM
same,EC50,[3],624 nM
same,EC50,[4],780 nM
C=CC(C)(C)C(OC(=O)C1CCCO1)c1cc(OC)c2c(c1OC)/C(=N/O)C=C/C2=N\O (centres undefined),EC50,[1],135 nM
C=CC(C)(C)C(OC(=O)c1ccc(C=O)cc1)c1cc(OC)c2c(c1OC)/C(=N/O)C=C/C2=N\O (centres undefined),EC50,[1],311 nM
C=CC(C)(C)C(OC(=O)c1ccco1)c1cc(OC)c2c(c1OC)/C(=N/O)C=C/C2=N\O (centres undefined),EC50,[1],3.78 nM
same,EC50,[2],10.9 nM
same,EC50,[3],54.7 nM
same,EC50,[4],67 nM
same,Activity,Neuromedin-B receptor [5],inactive
same,Activity,HEK293T,inactive
same,EC50,[6],0.44 nM
same,Activity,Mus musculus [7],Dose-Dependent Effect
same,Activity,Mus musculus [8],inactive
same,pKa,[9],> 10.2
same,concentration at 8 h,[10],< 0.05 ng/mL
same,Activity,Mus musculus [11],Active
same,Activity,Mus musculus [12],Active
same,Activity,Mus musculus [13],Active
same,Activity,Mus musculus [14],Active
same,Activity,Mus musculus [15],Active
same,Activity,Mus musculus [16],Active
same,EC50,[17],149 nM
same,EC50,[18],6.11 nM
same,Activity,Mus musculus [19],Active
C=CC(C)(C)C(O)c1cc(OC)c2c(c1OC)/C(=N/O)C=C/C2=N\O (centres undefined),EC50,[1],> 10000 nM
O[C@@](Cc1nc(CC2(C(F)(F)F)CC2)c[nH]1)(c1ccc(-n2cccn2)cc1)C(F)(F)F,EC50,[1],0.211 nM
same,EC50,[2],0.293 nM
same,EC50,[3],0.421 nM
same,EC50,[4],2.99 nM
same,EC50,[6],13.5 nM
C=CC(C)(C)C(OCCCCO)c1cc(OC)c2c(c1OC)/C(=N/O)C=C/C2=N\O (centres undefined),EC50,[1],226 nM
C=CC(C)(C)C(OC(=O)c1ccc(C)cc1)c1cc(OC)c2c(c1OC)/C(=N/O)C=C/C2=N\O (centres undefined),EC50,[1],81.7 nM
C=CC(C)(C)C(OCCCCCO)c1cc(OC)c2c(c1OC)/C(=N/O)C=C/C2=N\O (centres undefined),EC50,[1],776 nM
C=CC(C)(C)C(OC(C)=O)c1cc(OC)c2c(c1OC)/C(=N/O)C=C/C2=N\O (centres undefined),EC50,[1],> 1000 nM
C=CC(C)(C)C(OC(=O)c1ccncc1)c1cc(OC)c2c(c1OC)/C(=N/O)C=C/C2=N\O (centres undefined),EC50,[1],277 nM
COc1cc(C(CC=C(C)C)OCCC(C)C)c(OC)c2c1/C(=N/OC(=O)c1ccccc1)C=C/C2=N\OC(=O)c1ccccc1 (centres undefined),EC50,[1],> 10000 nM
C=CC(C)(C)C(OC(=O)c1cncc(F)c1)c1cc(OC)c2c(c1OC)/C(=N/O)C=C/C2=N\O (centres undefined),EC50,[1],60 nM
CCCC[C@H](NC(=O)[C@H](Cc1ccccc1)NC(=O)[C@H](Cc1c[nH]cn1)NC(=O)CNC(=O)[C@@H](NC(=O)[C@H](C)NC(=O)[C@H](Cc1c[nH]c2ccccc12)NC(=O)[C@H](CCC(N)=O)NC(=O)[C@H](N)Cc1ccccc1)C(C)C)C(N)=O,EC50,Neuromedin-B receptor [20],0.155 nM
same,EC50,[21],0.405 nM
COc1cc(C(CC=C(C)C)OC(=O)CC(C)C)c(OC)c2c1/C(=N/O)C=C/C2=N\O (centres undefined),EC50,[1],822 nM
COc1cc(C(CC=C(C)C)OCCC(C)C)c(OC)c2c1/C(=N/O)C=C/C2=N\O (centres undefined),EC50,[1],520 nM
C=CC(C)(C)C(OC(=O)c1cccnc1)c1cc(OC)c2c(c1OC)/C(=N/O)C=C/C2=N\O (centres undefined),EC50,[1],15.7 nM
C=CC(C)(C)C(OCCCO)c1cc(OC)c2c(c1OC)/C(=N/O)C=C/C2=N\O (centres undefined),EC50,[1],> 10000 nM
C=CC(C)(C)C(OC(=O)c1ccccn1)c1cc(OC)c2c(c1OC)/C(=N/O)C=C/C2=N\O (centres undefined),EC50,[1],14.7 nM
C=CC(C)(C)C(OC(=O)CC(C)C)c1cc(OC)c2c(c1OC)/C(=N/O)C=C/C2=N\O (centres undefined),EC50,[1],52.5 nM

# From ChEMBL document CHEMBL5338816, “Discovery of Dimethyl Shikonin Oxime 5a, a Potent, Selective Bombesin Receptor Subtype-3 Agonist for the Treatment of Type 2 Diabetes Mellitus” (J Med Chem, 2023)
